In ChEMBL document CHEMBL4311969, “Polygala tenuifolia-Acori tatarinowii herbal pair as an inspiration for substituted cinnamic α-asaronol esters: Design, synthesis, anticonvulsant activity, and inhibition of lactate dehydrogenase study” (Eur J Med Chem, 2019):

What was measured:
[1] = target: GABA-A receptor; alpha-1/beta-2/gamma-2 (Homo sapiens) (UniProt P14867+P47870+P18507); experiment: Agonist activity at GABA alpha1beta2gamma2 receptor in human HEK293T at 3.3 to 300 uM at -50 mV holding potential by whole cell voltage clamp assay relative to control; format: protein-complex assay
[2] = Drug uptake in Sprague-Dawley rat brain at 50 mg/kg, po; format: ADME, organism-based; conditions: in vivo
[3] = Tmax in Sprague-Dawley rat heart at 50 mg/kg, po; format: ADME, organism-based
[4] = Drug uptake in Sprague-Dawley rat kidney at 50 mg/kg, po; format: ADME, organism-based; conditions: in vivo
[5] = Drug metabolism in Sprague-Dawley rat assessed as retention time by HPLC/MS analysis; format: ADME
[6] = Noncompetitive inhibition of human LDH1 at 0.5 mM using sodium pyruvate as substrate by UV-VIS spectrophotometry method based Lineweaver-Burk plot analysis
Mus musculus [7] = experiment: Potency index, ratio of ED50 of stiripentol to ED50 of compound anticonvulsant activity in ip dosed Kunming mouse assessed as MES-induced hind limb extension administered 0.5 hrs before MES stimulation; format: functional
Mus musculus [8] = experiment: Anticonvulsant activity in Kunming mouse assessed as MES-induced hind limb extension at 100 mg/kg, ip administered 0. 5 hrs before MES stimulation relative to control; format: functional

For `COc1cc(OC)c(OC)cc1/C=C/COC(=O)/C=C/c1c(OC)cc(OC)c(OC)c1OC`, the %max [1] was 356%, the Drug uptake [2] was “Active” and the Tmax [3] was 1 h. For the same molecule, the Drug uptake [4] was “Active” and the Retention_time [5] was 40.6 min.
In the case of `COc1cc(OC)c(OC)cc1/C=C/COC(=O)/C=C/c1cc(OC)c(OC)c(OC)c1OC`, the Ki [6] is reported as 1770 nM, the “Ratio ED50” value (Mus musculus [7]) is reported as 3.96 and the Activity (Mus musculus [8]) is reported as 100%.
